From publication PMC5618421, “Anti-Inflammatory Effects of Curvularin-Type Metabolites from a Marine-Derived Fungal Strain Penicillium sp. SF-5859 in Lipopolysaccharide-Induced RAW264.7 Macrophages” (Marine Drugs, 2017)

What was measured:
[1] = system: PGE2 production in LPS-treated RAW 264.7 macrophages; test: Inhibition of PGE2 production (PGE2 ELISA kit) in LPS-treated RAW264.7 macrophages; type: cell-based; conditions: Mus musculus, RAW264.7 macrophages pre-treated 3 h with compound, then LPS (1 μg/mL) 24 h
Protocol: (§1) All isolated compounds (1–9) were evaluated for their anti-inflammatory effects. […] NO is a small molecule which is an intracellular mediator produced in various immune cells. It plays a pivotal role in the physiological and pathological condition of inflammatory symptoms. PGE2 can also regulate the immune and inflammatory responses. In this study, RAW264.7 macrophages were pre-treated for 3 h in the medium containing non-toxic concentrations (Table 2) of each compound (1–9), and then LPS (1 μg/mL) was treated for 24 h. According to the LPS stimulation of RAW264.7 macrophages, production of NO and PGE2 was increased, and the effects of all compounds on the production level of NO and PGE2 were evaluated by the Griess reaction and a PGE2 kit, respectively. […] To evaluate the impact of phenol and resorcinol groups in the curvularin-type metabolites for the anti-inflammatory activity, 5-O-methyl and 5,7,-di-O-methyl derivatives of curvularin (3a and 3b, respectively), as well as 5-O-acetyl and 5,7,-di-O-acetyl derivatives of curvularin (3c and 3d, respectively), were prepared, and the structures of 3a–3d were identified by comparison the ^1H and ^13C-NMR spectroscopic data with those of curvularin (3), and confirmed by their HRESIMS. […] The position of the methoxy group in 3a was confirmed by HMBC correlation between methoxy signal at δH 3.77 (3H, s, 5-OCH3) and δC 161.8 (C-5). The NOESY cross-peaks between acetyl proton ([…]) with H-2, H-4, and H-16 of 3c were used to identify the position of the acetyl group in 3c. […] Further systematic investigations are needed to clarify the structure activity relationship associated with the modification of the aliphatic part of the molecule.
RPMI1640, fetal bovine serum (FBS), and other tissue culture reagents were purchased from Gibco BRL Co. (Grand Island, NY, USA). All other chemicals were obtained from Sigma-Aldrich Co. (St. Louis, MO, USA). Primary antibodies (COX-2: sc-1745; iNOS: sc-650; IκB-α: sc-371; p-IκB-α: sc-8404; p50: sc-7178; p65: sc-8008, Santa Cruz Biotechnology, Dallas, TX, USA, p-ERK: #9101; ERK: #9102; p-JNK: #9251; JNK: #9252S; p-p38: #9211; p38: 9212S, Cell Signaling Technology, Danvers, MA, USA) and secondary antibodies (mouse: ap124p; goat: ap106p; rabbit: ap132p, Millipore, Billerica MA, USA). Enzyme-linked immunosorbent assay (ELISA) kits for PGE2 were purchased from R and D Systems, Inc. (Minneapolis, MN, USA).

[2] = system: NO production in LPS-treated RAW 264.7 macrophages; test: Inhibition of NO production (nitrite, Griess reaction) in LPS-treated RAW264.7 macrophages; type: cell-based; conditions: for inhibitory activity on LPS-induced production of NO and PGE2 (in words): LPS-stimulated RAW264.7 macrophages; for IC50: Mus musculus, RAW264.7 macrophages pre-treated 3 h with compound, then LPS (1 μg/mL) 24 h, Griess reaction
Protocol: as §1
As an indicator of NO production in RAW264.7 macrophages, production of nitrite, a stable end-product of NO oxidation, was estimated. Briefly, the concentration of nitrite in the conditioned media was determined by a method based on the Griess reaction, and the details of the assay were described previously.

RAW264.7 macrophages = test: Cell viability (MTT) cytotoxic assay; type: cell-based
Protocol: RAW264.7 macrophages were maintained at a density of 5 × 10^5 cells/mL in RPMI1640 medium supplemented with 10% heat-inactivated FBS, penicillin G (100 units/mL), streptomycin ([…]), and L-glutamine (2 mM), and were incubated at 37 °C in a humidified atmosphere containing 5% CO2. For determination of cell viability, cells (1 × 10^5 cells/well in 96-well plates) were incubated with 3-(4,5-dimethylthiazol-2-yl)-2,5-diphenyltetrazolium bromide (MTT) at a final concentration of 0.5 mg/mL for 3 h, and the formazan formed was dissolved in acidic 2-propanol. The optical density was measured at 540 nm with a microplate reader (BioRad, Hercules, CA, USA). The optical density of the formazan formed in control (untreated) cells was considered to represent 100% viability.

E. coli = system: E. coli; set-up: method as in PMID 26119337; conditions: growth of E. coli; cited from earlier work
human iNOS promotor = system: human iNOS promotor; set-up: method as in PMID 18366037; conditions: human alveolar epithelial A549/8 cells; compared with (S)-curvularin (3); cited from earlier work
iNOS and COX-2 = system: iNOS and COX-2; set-up: method as in PMID 18366037, PMID 12527810; conditions: human alveolar epithelial A549/8 cells; through blocking activation of STAT-1α; cited from earlier work
[3] = system: pro-inflammatory cytokines and chemokines; set-up: method as in PMID 22767531; conditions: mice model of chronic induced arthritis; cited from earlier work

| IC50 [1] | IC50 [2] | SMILES | Cytotoxicity (the maximum concentration not affecting cell viability) (RAW264.7 macrophages; RAW264.7 macrophages, MTT) | other results |
| --- | --- | --- | --- | --- |
| > 80 µM | > 80 µM | COC(=O)Cc1cc(O)cc(O)c1C(=O)C[C@H]1CCC[C@@H](C)O1 [Compound 2, curvulone B] | >80 µM | inhibitory activity on LPS-induced production of NO and PGE2 (in words) [2]: appeared to lose the inhibitory activity |
| 49.4 ± 14 µM | 60.6 ± 16.4 µM | COc1cc2c(c(OC)c1)C(=O)CCCCC[C@H](C)OC(=O)C2 [Compound 3b, 5,7-Di-O-methylcurvularin] | >80 µM |  |
|  |  | CO[C@@H]1CCC[C@H](C)OC(=O)Cc2cc(O)cc(O)c2C(=O)C1 [Compound 6, (11R,15S)-11-methoxycurvularin] | 20 µM |  |
| 73.7 ± 17.1 µM | 46.9 ± 3.7 µM | CC(=O)Oc1cc(O)c2c(c1)CC(=O)O[C@@H](C)CCCCCC2=O [Compound 3c, 5-O-acetylcurvularin] | >80 µM |  |
| > 80 µM | 77.5 ± 9.3 µM | CC(=O)Oc1cc2c(c(OC(C)=O)c1)C(=O)CCCCC[C@H](C)OC(=O)C2 [Compound 3d, 5,7-Di-O-acetylcurvularin] | >80 µM | inhibitory effect on the cytokine-mediated induction of the iNOS promotor (human iNOS promotor): higher inhibitory effect |
|  |  | COc1cc(O)c2c(c1)CC(=O)O[C@@H](C)CCCCCC2=O [Compound 3a, 5-O-methylcurvularin] | >80 µM |  |
|  |  | CC1CCCCCC(=O)c2c(O)cc(O)cc2CC(=O)O1 (centres unmarked) [Compound 3, curvularin] |  | inducible transcription and synthesis of iNOS and COX-2 (iNOS and COX-2): inhibited inducible transcription and synthesis of iNOS and COX-2; expression of pro-inflammatory cytokines and chemokines [3]: suppressive effect; Cytotoxicity (the maximum concentration not affecting cell viability) (RAW264.7 macrophages; mouse): 40 µM |
| > 80 µM | > 80 µM | C[C@H]1CCC[C@@H](CC(=O)c2c(O)cc(O)cc2CC(=O)O)O1 [Compound 1, curvulone C] | >80 µM | inhibitory activity on LPS-induced production of NO and PGE2 (in words) [2]: appeared to lose the inhibitory activity |
|  |  | CO[C@H]1CCC[C@H](C)OC(=O)Cc2cc(O)cc(O)c2C(=O)C1 [Compound 7, (11S,15S)-11-methoxycurvularin] | 20 µM |  |

| SMILES | IC50 [1] | IC50 [2] | Cytotoxicity (the maximum concentration not affecting cell viability) (RAW264.7 macrophages; RAW264.7 macrophages, MTT) | other results |
| --- | --- | --- | --- | --- |
| C[C@H]1CCC/C=C\C(=O)c2c(O)cc(O)cc2CC(=O)O1 [Compound 9, (10Z,15S)-10,11-dehydrocurvularin] | 6.2 ± 1.1 µM | 4.4 ± 0.8 µM | 20 µM |  |
| C[C@H]1CCC[C@H](O)CC(=O)c2c(O)cc(O)cc2CC(=O)O1 [Compound 5, (11S,15S)-11-hydroxycurvularin] | 14.1 ± 4 µM | 7.2 ± 1.6 µM | 40 µM | antibacterial activity (E. coli): inhibiting the growth of E. coli |
| C[C@H]1CCC[C@@H](O)CC(=O)c2c(O)cc(O)cc2CC(=O)O1 [Compound 4, (11R,15S)-11-hydroxycurvularin] | 15.6 ± 5.2 µM | 11.5 ± 2.7 µM | 40 µM | antibacterial activity (E. coli): inhibiting the growth of E. coli |
